According to patent US20250381169A1, “METHODS FOR TREATING RENAL DISEASE” (Arizona Board of Regents on Behalf of the University of …, priority 2022, published 2025):
Entries after “also recorded” stand apart in the source; their conditions may differ.

Columns and labels:
[1] = test system: kidney cortex of naïve mice; assay: Mitochondrial biogenesis in kidney cortex of naïve mice; format: in vivo
Method: Mice were treated with vehicle, 0.3 mg/kg or 1 mg/kg of MC16 with 2 doses IP (Oh, 24h) and harvested at 48 h.
Proteins were measured using immunoblot analysis or PCR to measure mRNA. […] FIG. 2G is a table of antioxidant and electron transport chain proteins and associated mRNAs.

[2] = test system: renal proximal tubule cells (RPTCs); assay: Renal proximal tubule cells treated with high glucose; format: cell-based
Method: Here, the effects of MC16 on mitochondrial dysfunction and dynamics in renal proximal tubule cells (RPTCs) treated with high glucose and in a mouse model of type 2 diabetes was assessed.

Db/db mice = assay: db/db mouse model of diabetic kidney disease; format: in vivo
Method: Db/db and nondiabetic (db/m) mice (10 wk old) were treated with MC16 or vehicle for 3 wk and euthanized.

[3] = test system: mice subjected to renal I/R; assay: Mouse AKI model (renal ischemia reperfusion, I/R); format: in vivo
Method: Control and treated mice subjected to renal I/R were treated with MC16 (0.3 mg/kg) or vehicle 24 h after injury and then daily for 120 h (euthanized at 144 h). Using electron microscopy, mitochondria were counted. Vascular permeability was assessed with Evan's blue dye leakage and proteins were measured in renal cortices using immunoblot. Serum creatinine was also measured.

[4] = test system: aged mouse kidneys (renal cortex); assay: Global metabolomics of renal cortex in aged mice; format: in vivo
Method: Aged 22-month-old male C57B/6J mice were administered 1.0 mg/kg of MC16 or normal saline every other day over a 21-day interval (n=8-9/group). Seven-month-old C57B/6J male mice (controls) were administered normal saline every other day over a 21-day interval (n=7). Kidneys were harvested and snap frozen in liquid nitrogen. Renal cortex biopsies were analyzed by Metabolon for global metabolomic analyses. Briefly, samples were processed and divided into four fractions: two for analysis by RP/UPLC-MS/MS with (+) ion mode electrospray ionization (IMESI), one for RP/UPLC-MS/MS with (−) IMESI, and one for HILIC/UPLC-MS/MS with (−) IMESI. […] A p-value of p≤0.05 and a false discovery rate of q<0.10 were utilized to identify global metabolite alteration and correct for multiple comparisons, respectively.

[5] = RPTCs exposed to 17 mM glucose, 96 h
[6] = FIG. 16, compared to diabetic mice getting vehicle
[7] = db/db mice 10 wk old, treated for 3 wk
[8] = I/R+MC16 group, decreased in I/R group
[9] = MC16-treated 'old' mice compared to saline-treated 'old' mice
[10] = MC16-treated 'old' mice vs saline-treated 'young' control mice

SMILES: CCN1C(=O)C(Cc2cccc(OC)c2O)(OC(=O)N(C)C)c2cc(Cl)ccc21 (stereo not shown) [MC16, 5-chloro-1-ethyl-3-(2-hydroxy-3-methoxybenzyl)-2-oxoindolin-3-yl dimethylcarbamate]
- mitochondrial and antioxidant proteins ([1]; immunoblot or PCR, n=6): increases
- mitochondrial biogenesis pathway proteins and/or associated mRNA ([1]; immunoblot or PCR, n=6): induces
- Mitochondrial number in kidney cortex ([1]; naïve mice, 0.3 mg/kg or 1 mg/kg, 2 doses IP (0 h, 24 h), harvested at 48 h): increases
- ATP [2, 5]: restored
- ETC proteins [2, 5]: restored
- oxygen consumption rate [2, 5]: restored
- Mfn1 ([2]; RPTCs exposed to high glucose): restored
- phospho-Drp1 ([2]; RPTCs exposed to high glucose): restored
- PGC1α (Db/db mice; FIG. 9, n=6): restores
- MFN2 (fusion) (Db/db mice; FIG. 10, n=6): increased
- mitochondrial fission proteins (Db/db mice; FIG. 11, n=6): no effect
- mitophagy proteins (Db/db mice; FIG. 12, n=6): increases
- glomerular function over time (Db/db mice; FIG. 13, mice have yet to show signs of DKD in the timeframe): does not change
- vascular tight junction proteins (Db/db mice; FIG. 15, n=6): improves
- blood glucose (Db/db mice; [6]): does not increase/decrease
- urine output (Db/db mice; [6]): does not increase/decrease
- kidney weight (Db/db mice; FIG. 17, relative to control mice): normalized
- KIM1 (Db/db mice; FIG. 18): normalizes
- NGAL (Db/db mice; FIG. 18): No effects
- serum creatinine (Db/db mice; FIG. 18): normalizes
- ATP (Db/db mice; [7]): prevented; also recorded: restores
- phospho-Drp1 (Db/db mice; [7]): restored
- renal cortical ETC protein levels (complexes I, III, and V) (Db/db mice; [7]): prevented; also recorded: restores
- recovery of renal function (serum creatinine) ([3]; FIG. 3, n=6): promotes recovery
- recovery of tubular injury (Kim1 expression) ([3]; FIG. 3, n=6): promotes recovery
- MFN2 ([3]; FIG. 5, during injury or MC16 treatment): did not change
- MFN1 (fusion) ([3]; FIG. 5, n=6): increases
- pDRP1 (fission) ([3]; FIG. 6, at 144 h): decreases
- DRP1 ([3]; FIG. 6, n=6): does not have an affect
- PGC-1α in the cytosolic fraction ([3]; FIG. 7, cytosolic fraction): not in the cytosolic fraction
- nuclear PGC-1α (biogenesis) ([3]; FIG. 7, nuclear fraction): increases
- serum creatinine decrease ([3]; I/R+MC16, 0.3 mg/kg from 24 h after injury, daily, at 144 h (I/R group alone 41%)): 72%
- Kim1 decrease ([3]; I/R+MC16 group, 0.3 mg/kg, 144 h): 50%
- PGC-1α ([3]; I/R+MC16 group, renal cortex immunoblot): increased
- Tight junction protein Claudin5 [3, 8]: recovered
- Tight junction protein ZO-1 [3, 8]: recovered
- Evan's blue dye leakage (vascular permeability) ([3]; I/R+MC16 group, increased 2.5-fold in I/R group): restored
- mitochondria biogenesis in renal cortices ([3]; mitochondria counted by electron microscopy, 0.3 mg/kg): 1.4 fold
- reduction in DHAP [4, 9]: 20%
- reduction in fructose-6-phosphate [4, 9]: 24%
- reduction in glucose-6-phosphate [4, 9]: 32%
- long chain polyunsaturated fatty acids (n3 and n6) ([4]; MC16-treated 'old' mice vs saline-treated 'old' and 'young' mice controls): increase
- glycolysis metabolites [4, 10]: no statistical changes
- metabolic lipid alterations (diacylglycerols, monoacylglycerols, acyl glycines, PC, PE, plasmalogens, secondary bile acids) [4, 10]: not observed
- origin of carnitine species ([4]; MC16-treated 'old' mice, saline-treated 'old' mice: leucine, isoleucine, valine metabolism): fatty acid metabolism
- carnitine levels ([4]; both 'old' groups (saline and MC16)): elevated
